Results taken from ChEMBL document CHEMBL1201862, “PubChem BioAssay data set” (2004).
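Values below derive from 48-hour exposures of cells grown in 96-well plates, with endpoints linearly interpolated between the two concentrations bracketing the appropriate inhibition level. GI50 marks 50% less growth.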 The source made the active and inactive calls. No stated cut-off is given here; in the data, active = GI50 up to about 1.1 µM and inactive = higher.

Columns and labels:
Experiment in all cases: growth of human tumour cells (NCI), 48 h
K562 = tested on: K562
SNB-19 = tested on: SNB-19
Malme-3M = tested on: Malme-3M
EKVX = tested on: EKVX
DU-145 = tested on: DU-145
ACHN = tested on: ACHN
A549 = tested on: A549
MDA-MB-231 = tested on: MDA-MB-231
NCI-H522 = tested on: NCI-H522
SK-MEL-28 = tested on: SK-MEL-28
U-251 = tested on: U-251
RXF 393 = tested on: RXF 393
HOP-62 = tested on: HOP-62
PC-3 = tested on: PC-3
UACC-257 = tested on: UACC-257
LOX IMVI = tested on: LOX IMVI
HCT-116 = tested on: HCT-116
HCC 2998 = tested on: HCC 2998
SF-268 = tested on: SF-268
Hs-578T = tested on: Hs-578T

Measured: GI50

CC(=O)Nc1cccc(N2C(=O)/C(=C\c3cccc(Oc4ccccc4)c3)S(=O)(=O)C2c2ccccc2)c1 (configuration not stated)
inactive: K562 26.7 µM | SNB-19 > 100 µM | Malme-3M > 100 µM | EKVX 73.6 µM | DU-145 > 100 µM | ACHN > 100 µM | A549 > 100 µM | MDA-MB-231 > 100 µM | NCI-H522 69 µM | SK-MEL-28 > 100 µM | U-251 65.6 µM | RXF 393 > 100 µM | HOP-62 > 100 µM | PC-3 64.3 µM | UACC-257 > 100 µM | LOX IMVI 27.7 µM | HCT-116 34.1 µM | HCC 2998 > 100 µM

O=C1Nc2cc(Cl)ccc2N=CC1NC(=O)C(c1ccccc1)c1ccccc1Cl (configuration not stated)
inactive: K562 > 100 µM | SNB-19 > 100 µM | SF-268 > 100 µM | Malme-3M > 100 µM | EKVX > 100 µM | ACHN > 100 µM | A549 > 100 µM | NCI-H522 > 100 µM | SK-MEL-28 > 100 µM | U-251 > 100 µM | RXF 393 > 100 µM | HOP-62 > 100 µM | UACC-257 > 100 µM | LOX IMVI > 100 µM | HCT-116 > 100 µM | HCC 2998 > 100 µM

O=C(O)C1CCCCC1C(=O)Nn1cnnc1 (configuration not stated)
inactive: K562 > 100 µM | SNB-19 > 100 µM | SF-268 > 100 µM | EKVX > 100 µM | DU-145 > 100 µM | ACHN > 100 µM | A549 > 100 µM | MDA-MB-231 > 100 µM | NCI-H522 > 100 µM | SK-MEL-28 > 100 µM | U-251 > 100 µM | RXF 393 > 100 µM | HOP-62 > 100 µM | PC-3 > 100 µM | UACC-257 > 100 µM | LOX IMVI > 100 µM | HCT-116 > 100 µM | HCC 2998 > 100 µM

[N-]=[N+]=CC(=O)C1(C(=O)C=[N+]=[N-])CC1
inactive: K562 > 100 µM | SNB-19 > 100 µM | SF-268 > 100 µM | Malme-3M > 100 µM | EKVX > 100 µM | ACHN > 100 µM | A549 > 100 µM | NCI-H522 > 100 µM | SK-MEL-28 > 100 µM | U-251 > 100 µM | RXF 393 > 100 µM | HOP-62 > 100 µM | UACC-257 > 100 µM | LOX IMVI > 100 µM | HCT-116 > 100 µM | HCC 2998 > 100 µM

N#C/C(=C\c1cc(Br)c(O)c(Br)c1)c1cccnc1
inactive: K562 23.6 µM | SNB-19 39.1 µM | SF-268 33.4 µM | Malme-3M 17.2 µM | EKVX 19.1 µM | DU-145 > 100 µM | ACHN 36.3 µM | A549 34.2 µM | NCI-H522 30.6 µM | SK-MEL-28 27.6 µM | U-251 16.7 µM | RXF 393 41.3 µM | HOP-62 32.8 µM | PC-3 22 µM | UACC-257 23.6 µM | HCT-116 > 100 µM | HCC 2998 36.1 µM

O=C(Nc1ccc(Cl)c(Cl)c1)C(=O)Nn1c(S)nc2ccccc2c1=O
inactive: K562 > 100 µM | SNB-19 > 100 µM | SF-268 > 100 µM | Malme-3M > 100 µM | EKVX > 100 µM | ACHN > 100 µM | A549 > 100 µM | NCI-H522 > 100 µM | SK-MEL-28 > 100 µM | U-251 > 100 µM | RXF 393 > 100 µM | HOP-62 > 100 µM | UACC-257 > 100 µM | LOX IMVI > 100 µM | HCT-116 > 100 µM | HCC 2998 > 100 µM

CN(C(=O)c1cc2c(s1)sc1c(=O)n(C)c3ccccc3c12)c1ccccc1
inactive: K562 2.51 µM | SNB-19 31.3 µM | Malme-3M 6.56 µM | EKVX 16.7 µM | DU-145 69.8 µM | ACHN 5.46 µM | A549 8.55 µM | MDA-MB-231 24.8 µM | NCI-H522 4.41 µM | SK-MEL-28 > 100 µM | U-251 10.9 µM | RXF 393 21.8 µM | PC-3 4.68 µM | UACC-257 29.4 µM | LOX IMVI 18.5 µM | HCT-116 4.93 µM | HCC 2998 4.66 µM

CN(C)CCCSc1c2ccccc2nc2cc(NCC(=O)Nc3ccccc3-c3ccccc3NC(=O)CNc3ccc4c(SCCCN(C)C)c5ccccc5nc4c3)ccc12
inactive: K562 71.4 µM | SNB-19 > 100 µM | SF-268 > 100 µM | Malme-3M 59.4 µM | EKVX > 100 µM | ACHN > 100 µM | A549 > 100 µM | NCI-H522 > 100 µM | SK-MEL-28 > 100 µM | U-251 > 100 µM | RXF 393 > 100 µM | HOP-62 > 100 µM | UACC-257 > 100 µM | LOX IMVI > 100 µM | HCT-116 > 100 µM | HCC 2998 > 100 µM

CC(C)(C)c1cc(Oc2ccc(C#N)c(C#N)c2)cc(C(C)(C)C)c1
inactive: K562 83.2 µM | SNB-19 > 100 µM | SF-268 > 100 µM | Malme-3M > 100 µM | EKVX > 100 µM | ACHN > 100 µM | A549 > 100 µM | NCI-H522 36.1 µM | SK-MEL-28 > 100 µM | U-251 85.5 µM | RXF 393 > 100 µM | HOP-62 > 100 µM | UACC-257 > 100 µM | LOX IMVI 33.4 µM | HCT-116 68.1 µM | HCC 2998 > 100 µM

Cc1ccc(S(=O)(=O)c2c(O)c3ccccc3n(C)c2=O)cc1
inactive: K562 > 100 µM | SNB-19 > 100 µM | SF-268 > 100 µM | Malme-3M > 100 µM | EKVX > 100 µM | DU-145 > 100 µM | A549 > 100 µM | MDA-MB-231 > 100 µM | SK-MEL-28 > 100 µM | U-251 > 100 µM | RXF 393 > 100 µM | HOP-62 > 100 µM | PC-3 > 100 µM | UACC-257 > 100 µM | Hs-578T > 100 µM | HCT-116 > 100 µM

COc1ccc(-c2cc(-c3ccccc3)c(C#N)c(=O)[nH]2)cc1
inactive: K562 > 100 µM | SNB-19 > 100 µM | SF-268 > 100 µM | Malme-3M > 100 µM | EKVX > 100 µM | ACHN > 100 µM | A549 > 100 µM | NCI-H522 > 100 µM | SK-MEL-28 > 100 µM | U-251 > 100 µM | RXF 393 > 100 µM | HOP-62 > 100 µM | UACC-257 > 100 µM | LOX IMVI > 100 µM | HCT-116 > 100 µM | HCC 2998 > 100 µM

COc1cccc(-c2cc(C(=O)Nc3ccc(Cl)cc3)nc(N)n2)c1
inactive: K562 40.5 µM | SNB-19 70.8 µM | SF-268 65.2 µM | Malme-3M 57.7 µM | EKVX > 100 µM | ACHN > 100 µM | A549 64.7 µM | NCI-H522 32.4 µM | SK-MEL-28 86.9 µM | U-251 60.8 µM | RXF 393 39.4 µM | HOP-62 > 100 µM | UACC-257 81.1 µM | LOX IMVI 66.1 µM | HCT-116 42.9 µM | HCC 2998 87.7 µM

C=CCC1C(=O)Nc2cccc3ncn(c23)C1=O (configuration not stated)
inactive: K562 > 100 µM | SNB-19 > 100 µM | SF-268 > 100 µM | Malme-3M > 100 µM | EKVX > 100 µM | DU-145 > 100 µM | ACHN > 100 µM | A549 > 100 µM | MDA-MB-231 > 100 µM | SK-MEL-28 > 100 µM | U-251 > 100 µM | RXF 393 > 100 µM | HOP-62 > 100 µM | PC-3 > 100 µM | UACC-257 > 100 µM | Hs-578T > 100 µM | HCT-116 > 100 µM

O=C(Cn1c(C(=O)/C=C/c2cccs2)nc2ccccc21)c1ccc(Cl)cc1
inactive: K562 7.8 µM | SNB-19 25.5 µM | SF-268 12.6 µM | Malme-3M 13.6 µM | DU-145 26.7 µM | ACHN 26.6 µM | A549 23.3 µM | MDA-MB-231 16.8 µM | SK-MEL-28 30.5 µM | U-251 14.4 µM | RXF 393 29.2 µM | HOP-62 25.9 µM | UACC-257 17.9 µM | Hs-578T 12.8 µM | LOX IMVI 13.9 µM | HCT-116 16.6 µM | HCC 2998 14.8 µM

CCOc1cc2c(cc1O)C(N)C[C@@H]1[C@@H]2CC[C@]2(C)[C@@H](O)CC[C@@H]12 (some centres not stated)
inactive: K562 18.8 µM | SNB-19 46.7 µM | SF-268 61.7 µM | EKVX 80.9 µM | ACHN 34.8 µM | MDA-MB-231 83.9 µM | NCI-H522 33.5 µM | SK-MEL-28 42.8 µM | U-251 37.9 µM | RXF 393 56.5 µM | HOP-62 46.7 µM | PC-3 34.4 µM | UACC-257 38.6 µM | Hs-578T 54.7 µM | LOX IMVI 34.2 µM | HCC 2998 36.7 µM

N#[N+]c1cc2c(cc1Br)-c1ccccc1C2
inactive: K562 8.39 µM | SNB-19 71.3 µM | SF-268 > 100 µM | Malme-3M 40 µM | EKVX 24.5 µM | DU-145 > 100 µM | ACHN > 100 µM | A549 95.9 µM | MDA-MB-231 > 100 µM | NCI-H522 58.2 µM | SK-MEL-28 > 100 µM | U-251 82.2 µM | RXF 393 78.3 µM | HOP-62 > 100 µM | UACC-257 23.5 µM | Hs-578T > 100 µM | LOX IMVI 91.6 µM | HCT-116 > 100 µM | HCC 2998 85.5 µM
